Holding throughout (assay): relative viability (nuclei count vs DMSO), 5 days (fraction); higher = more cells survive
Compound in the assay “Ruxolitinib + Pictilisib”: N#CC[C@H](C1CCCC1)n1cc(-c2ncnc3[nH]ccc23)cn1 [Ruxolitinib] + CS(=O)(=O)N1CCN(Cc2cc3nc(-c4cccc5[nH]ncc45)nc(N4CCOCC4)c3s2)CC1 [Pictilisib] (partner 1 µM)
An outline of the steps: (§1)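 One day after seeding in 1536-well plates, lung cancer cell lines were dosed by pin tool. Dosing was either single-drug or a fixed anchor-drug dose plus five library-drug doses (not always all listed) in √10 steps. After 5 days, nuclei were stained in one fix-and-stain step and counted on 4× images, and relative viability is the nuclei count of treated wells over that of vehicle wells, given as the median of duplicate plates.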

Compound in the assay “Vismodegib + Vorinostat”: CS(=O)(=O)c1ccc(C(=O)Nc2ccc(Cl)c(-c3ccccn3)c2)c(Cl)c1 [Vismodegib] + O=C(CCCCCCC(=O)Nc1ccccc1)NO [Vorinostat] (partner 1 µM)
The gist of the method:
as §1

Compound in the assay “Ruxolitinib + Vorinostat”: N#CC[C@H](C1CCCC1)n1cc(-c2ncnc3[nH]ccc23)cn1 [Ruxolitinib] + O=C(CCCCCCC(=O)Nc1ccccc1)NO [Vorinostat] (partner 1 µM)
An outline of the steps: as §1

Compound in the assay “VE-821 + Luminespib”: CS(=O)(=O)c1ccc(-c2cnc(N)c(C(=O)Nc3ccccc3)n2)cc1 [VE-821] + CCNC(=O)c1noc(-c2cc(C(C)C)c(O)cc2O)c1-c1ccc(CN2CCOCC2)cc1 [Luminespib] (partner 0.01 µM)
An outline of the steps:
as §1

With NCI-H3122, the relative viability stood at 0.538 in the assay with Ruxolitinib + Pictilisib (first compound 0.08 µM); 0.509 in the assay with Ruxolitinib + Pictilisib (first compound 0.253 µM); 0.552 with Ruxolitinib + Pictilisib (first compound 0.8 µM); 0.357 with Ruxolitinib + Pictilisib (first compound 2.53 µM); 0.562 in the assay with Ruxolitinib + Pictilisib (first compound 8 µM); 0.986 in the assay with Vismodegib + Vorinostat (first compound 0.08 µM). The relative viability is 0.994 in the assay with Vismodegib + Vorinostat (first compound 0.253 µM); 0.994 in the assay with Vismodegib + Vorinostat (first compound 0.8 µM); 1.09 in the assay with Vismodegib + Vorinostat (first compound 2.53 µM); 0.992 with Vismodegib + Vorinostat (first compound 8 µM); 0.886 with Ruxolitinib + Vorinostat (first compound 0.08 µM); 1.12 with Ruxolitinib + Vorinostat (first compound 0.253 µM). Moreover, the relative viability stood at 1.13 with Ruxolitinib + Vorinostat (first compound 0.8 µM); 0.962 in the assay with Ruxolitinib + Vorinostat (first compound 2.53 µM); 1.02 with Ruxolitinib + Vorinostat (first compound 8 µM); 0.111 with VE-821 + Luminespib (first compound 0.08 µM); 0.064 with VE-821 + Luminespib (first compound 0.253 µM); 0.0908 with VE-821 + Luminespib (first compound 0.8 µM). In addition, the relative viability in the assay with VE-821 + Luminespib (first compound 2.53 µM) came to 0.0825; in the assay with VE-821 + Luminespib (first compound 8 µM), 0.0706.
Regarding PC-3 [JPC-3], the relative viability with Ruxolitinib + Pictilisib (first compound 0.08 µM) was determined as 0.507; with Ruxolitinib + Pictilisib (first compound 0.253 µM), 0.752; with Ruxolitinib + Pictilisib (first compound 0.8 µM), 0.763; in the assay with Ruxolitinib + Pictilisib (first compound 2.53 µM) it was 0.678; with Ruxolitinib + Pictilisib (first compound 8 µM), 0.7; with Vismodegib + Vorinostat (first compound 0.08 µM), 0.858. Moreover, the relative viability in the assay with Vismodegib + Vorinostat (first compound 0.253 µM) amounted to 0.548; in the assay with Vismodegib + Vorinostat (first compound 0.8 µM), 0.802; with Vismodegib + Vorinostat (first compound 2.53 µM), 0.924; with Vismodegib + Vorinostat (first compound 8 µM), 0.896; with Ruxolitinib + Vorinostat (first compound 0.253 µM), 0.778; with Ruxolitinib + Vorinostat (first compound 0.8 µM), 0.809. The relative viability with Ruxolitinib + Vorinostat (first compound 2.53 µM) amounted to 0.875; in the assay with Ruxolitinib + Vorinostat (first compound 8 µM), 0.696; with VE-821 + Luminespib (first compound 0.08 µM) it was 0.718; with VE-821 + Luminespib (first compound 0.253 µM) it was 0.718; in the assay with VE-821 + Luminespib (first compound 0.8 µM), 0.698; in the assay with VE-821 + Luminespib (first compound 2.53 µM), 0.726. Further, the relative viability in the assay with VE-821 + Luminespib (first compound 8 µM) was determined as 0.705.
With PC-14, the relative viability in the assay with Ruxolitinib + Pictilisib (first compound 0.253 µM) was found to be 0.618; with Ruxolitinib + Pictilisib (first compound 0.8 µM), 0.799; in the assay with Ruxolitinib + Pictilisib (first compound 2.53 µM), 0.654; with Ruxolitinib + Pictilisib (first compound 8 µM), 0.476; with Vismodegib + Vorinostat (first compound 0.08 µM), 0.682; in the assay with Vismodegib + Vorinostat (first compound 0.253 µM), 0.773. The relative viability with Vismodegib + Vorinostat (first compound 0.8 µM) was determined as 0.764; with Vismodegib + Vorinostat (first compound 2.53 µM), 0.838; with Vismodegib + Vorinostat (first compound 8 µM), 0.749; with Ruxolitinib + Vorinostat (first compound 0.253 µM) it was 0.788; with Ruxolitinib + Vorinostat (first compound 0.8 µM) it was 1.05; in the assay with Ruxolitinib + Vorinostat (first compound 2.53 µM), 0.658. For the same cell line, the relative viability with Ruxolitinib + Vorinostat (first compound 8 µM) was 0.652; in the assay with VE-821 + Luminespib (first compound 0.08 µM), 0.173; in the assay with VE-821 + Luminespib (first compound 0.253 µM), 0.19; in the assay with VE-821 + Luminespib (first compound 0.8 µM), 0.123; with VE-821 + Luminespib (first compound 2.53 µM), 0.241; in the assay with VE-821 + Luminespib (first compound 8 µM), 0.12.
RERF-LC-KJ: the relative viability in the assay with Ruxolitinib + Pictilisib (first compound 0.08 µM) came out at 0.517; with Ruxolitinib + Pictilisib (first compound 0.253 µM) it was 0.447; in the assay with Ruxolitinib + Pictilisib (first compound 0.8 µM) it was 0.656; with Ruxolitinib + Pictilisib (first compound 2.53 µM) it was 0.53; in the assay with Ruxolitinib + Pictilisib (first compound 8 µM), 0.393; with Vismodegib + Vorinostat (first compound 0.08 µM), 0.669. Also, the relative viability with Vismodegib + Vorinostat (first compound 0.253 µM) is 0.603; with Vismodegib + Vorinostat (first compound 0.8 µM), 0.78; in the assay with Vismodegib + Vorinostat (first compound 2.53 µM) it was 0.772; with Vismodegib + Vorinostat (first compound 8 µM), 0.659; with Ruxolitinib + Vorinostat (first compound 0.08 µM) it was 0.73; with Ruxolitinib + Vorinostat (first compound 0.253 µM), 0.859. Also, the relative viability with Ruxolitinib + Vorinostat (first compound 0.8 µM) was 0.841; in the assay with Ruxolitinib + Vorinostat (first compound 2.53 µM), 0.867; with Ruxolitinib + Vorinostat (first compound 8 µM) it was 0.66; with VE-821 + Luminespib (first compound 0.08 µM), 1.31; with VE-821 + Luminespib (first compound 0.253 µM) it was 1.06; with VE-821 + Luminespib (first compound 0.8 µM), 1.06. In addition, the relative viability came out at 1.18 in the assay with VE-821 + Luminespib (first compound 2.53 µM) and 0.931 in the assay with VE-821 + Luminespib (first compound 8 µM).
On to SK-LU-1, for which the relative viability with Ruxolitinib + Pictilisib (first compound 0.08 µM) was found to be 0.657; in the assay with Ruxolitinib + Pictilisib (first compound 0.253 µM), 0.723; in the assay with Ruxolitinib + Pictilisib (first compound 0.8 µM), 0.538; with Ruxolitinib + Pictilisib (first compound 2.53 µM), 0.607; with Ruxolitinib + Pictilisib (first compound 8 µM) it was 0.638; with Vismodegib + Vorinostat (first compound 0.08 µM) it was 0.718. In addition, the relative viability in the assay with Vismodegib + Vorinostat (first compound 0.253 µM) amounted to 0.827; in the assay with Vismodegib + Vorinostat (first compound 0.8 µM) it was 0.784; with Vismodegib + Vorinostat (first compound 2.53 µM), 0.718; with Vismodegib + Vorinostat (first compound 8 µM), 0.842; in the assay with Ruxolitinib + Vorinostat (first compound 0.08 µM), 0.763; with Ruxolitinib + Vorinostat (first compound 0.253 µM) it was 0.856. Besides, the relative viability came to 0.747 with Ruxolitinib + Vorinostat (first compound 0.8 µM); 0.805 with Ruxolitinib + Vorinostat (first compound 2.53 µM); 0.53 with Ruxolitinib + Vorinostat (first compound 8 µM); 0.177 in the assay with VE-821 + Luminespib (first compound 0.08 µM); 0.203 in the assay with VE-821 + Luminespib (first compound 0.253 µM); 0.193 in the assay with VE-821 + Luminespib (first compound 0.8 µM). The relative viability with VE-821 + Luminespib (first compound 2.53 µM) amounted to 0.203; with VE-821 + Luminespib (first compound 8 µM) it was 0.164.
SK-MES-1: the relative viability with Ruxolitinib + Pictilisib (first compound 0.08 µM) turned out to be 0.268; with Ruxolitinib + Pictilisib (first compound 0.253 µM), 0.337; in the assay with Ruxolitinib + Pictilisib (first compound 0.8 µM), 0.359; with Ruxolitinib + Pictilisib (first compound 2.53 µM) it was 0.394; with Ruxolitinib + Pictilisib (first compound 8 µM), 0.335; in the assay with Vismodegib + Vorinostat (first compound 0.08 µM) it was 1.11. Besides, the relative viability was found to be 0.981 with Vismodegib + Vorinostat (first compound 0.253 µM); 1.07 with Vismodegib + Vorinostat (first compound 0.8 µM); 0.973 in the assay with Vismodegib + Vorinostat (first compound 2.53 µM); 1.06 with Vismodegib + Vorinostat (first compound 8 µM); 1.19 with Ruxolitinib + Vorinostat (first compound 0.08 µM); 1.07 with Ruxolitinib + Vorinostat (first compound 0.253 µM). Also, the relative viability was determined as 1.01 in the assay with Ruxolitinib + Vorinostat (first compound 0.8 µM); 0.968 with Ruxolitinib + Vorinostat (first compound 2.53 µM); 0.949 with Ruxolitinib + Vorinostat (first compound 8 µM); 1.09 with VE-821 + Luminespib (first compound 0.08 µM); 0.797 with VE-821 + Luminespib (first compound 0.253 µM); 0.746 with VE-821 + Luminespib (first compound 0.8 µM). Further, the relative viability with VE-821 + Luminespib (first compound 2.53 µM) is 0.537; with VE-821 + Luminespib (first compound 8 µM), 0.306.
For the cell line SW 1573, the relative viability came to 0.495 with Ruxolitinib + Pictilisib (first compound 0.08 µM); 0.425 in the assay with Ruxolitinib + Pictilisib (first compound 0.253 µM); 0.546 in the assay with Ruxolitinib + Pictilisib (first compound 0.8 µM); 0.445 with Ruxolitinib + Pictilisib (first compound 2.53 µM); 0.429 with Ruxolitinib + Pictilisib (first compound 8 µM); 0.77 with Vismodegib + Vorinostat (first compound 0.08 µM). The relative viability was determined as 0.564 in the assay with Vismodegib + Vorinostat (first compound 0.253 µM); 0.895 in the assay with Vismodegib + Vorinostat (first compound 0.8 µM); 0.636 with Vismodegib + Vorinostat (first compound 2.53 µM); 0.679 in the assay with Vismodegib + Vorinostat (first compound 8 µM); 0.927 in the assay with Ruxolitinib + Vorinostat (first compound 0.08 µM); 1.08 with Ruxolitinib + Vorinostat (first compound 0.253 µM). The relative viability with Ruxolitinib + Vorinostat (first compound 0.8 µM) turned out to be 0.995; with Ruxolitinib + Vorinostat (first compound 2.53 µM), 0.584; with Ruxolitinib + Vorinostat (first compound 8 µM) it was 0.727; with VE-821 + Luminespib (first compound 0.08 µM) it was 0.21; in the assay with VE-821 + Luminespib (first compound 0.253 µM), 0.228; with VE-821 + Luminespib (first compound 0.8 µM), 0.214. For the same cell line, the relative viability turned out to be 0.226 in the assay with VE-821 + Luminespib (first compound 2.53 µM) and 0.165 with VE-821 + Luminespib (first compound 8 µM).

Source of the values: the supplement of paper PMC10307832.
